# Results published in ChEMBL document CHEMBL3734742, “Discovery of 2-aryloxy-4-amino-quinazoline derivatives as novel protease-activated receptor 2 (PAR2) antagonists” (Bioorg Med Chem, 2015).
# The source made the active and inactive calls. No cut-off for these calls is given here.
# Columns and labels:
# [1] = target: T1, Proteinase-activated receptor 2 (Homo sapiens, UniProt P55085); test: Displacement of [3H]furoyl-LIGRL-NH2 from human protease-activated receptor 2 in NCTC-2544 cells; type: cell-based
# T1 sequence (P55085 whole entry): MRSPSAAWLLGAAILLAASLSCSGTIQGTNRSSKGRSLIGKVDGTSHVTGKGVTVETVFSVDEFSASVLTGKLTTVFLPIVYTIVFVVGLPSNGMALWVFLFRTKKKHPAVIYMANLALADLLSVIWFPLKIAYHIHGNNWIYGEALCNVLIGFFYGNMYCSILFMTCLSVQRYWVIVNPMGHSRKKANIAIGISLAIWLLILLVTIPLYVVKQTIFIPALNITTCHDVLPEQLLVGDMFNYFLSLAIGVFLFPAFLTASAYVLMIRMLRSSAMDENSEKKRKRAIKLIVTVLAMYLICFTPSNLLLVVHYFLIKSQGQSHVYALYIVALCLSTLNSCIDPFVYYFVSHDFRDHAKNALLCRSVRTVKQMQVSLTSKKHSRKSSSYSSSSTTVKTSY
# [2] = target: T1, Proteinase-activated receptor 2; test: Antagonist activity at protease-activated receptor 2 (unknown origin)
# [3] = target: Proteinase-activated receptor 2 (Homo sapiens) (UniProt P55085); test: Antagonist activity at protease-activated receptor 2 (unknown origin) expressed in CHO-K1 cells assessed as inhibition of trypsin-induced calcium flux at 10 uM by FLIPR assay; type: functional, cell-based
# [4] = target: T1, Proteinase-activated receptor 2; test: Antagonist activity at protease-activated receptor 2 (unknown origin) expressed in CHO-K1 cells assessed as inhibition of trypsin-induced calcium flux by FLIPR assay; type: functional, cell-based
# RAW264.7 [5] = test: Antiinflammatory activity in mouse RAW264.7 cells assessed as inhibition of LPS-induced PGE2 production at 3 uM for 1 hr followed by stimulation with LPS for 24 hrs […]; type: functional, cell-based
# [6] = target: Proteinase-activated receptor 2 (Homo sapiens) (UniProt P55085); test: Antagonist activity at trypsin-induced protease-activated receptor 2 activation (unknown origin) expressed in CHO-K1 cells assessed as receptor internalization at 30 uM after 1 hr by immuno-fluorescence assay (reference value: 28%); type: cell-based; set-up: scale not given: the % may be the effect or the level left
# RAW264.7 [7] = test: Antiinflammatory activity in mouse RAW264.7 cells assessed as inhibition of LPS-induced iNOS mRNA level compound pretreated for 1 hr followed by stimulation with LPS for 24 hrs by qRT-PCR analysis; type: functional, cell-based
# [8] = target: T2, Proteinase-activated receptor 2 (Mus musculus) (UniProt P55086); test: Antagonist activity at protease-activated receptor 2 in LPS-stimulated mouse RAW264.7 cells assessed as inhibition of NF-kappaB activation compound pretreated for 1 hr followed by stimulation with LPS for 8 hrs by luciferase reporter gene assay; type: cell-based
# T2 sequence (whole entry): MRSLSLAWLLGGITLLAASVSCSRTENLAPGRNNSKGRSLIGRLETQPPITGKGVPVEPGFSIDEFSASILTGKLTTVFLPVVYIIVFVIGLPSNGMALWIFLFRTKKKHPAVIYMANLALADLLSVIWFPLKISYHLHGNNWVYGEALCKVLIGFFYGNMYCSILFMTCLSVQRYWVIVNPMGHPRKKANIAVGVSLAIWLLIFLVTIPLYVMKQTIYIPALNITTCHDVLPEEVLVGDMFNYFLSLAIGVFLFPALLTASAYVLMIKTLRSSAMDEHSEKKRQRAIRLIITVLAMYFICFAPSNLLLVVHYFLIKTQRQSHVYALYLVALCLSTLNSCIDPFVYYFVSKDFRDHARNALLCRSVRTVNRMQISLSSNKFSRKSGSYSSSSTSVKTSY
# [9] = target: MAP kinase p38 (Mus musculus) (UniProt P47811+O08911+Q9WUI1+Q9Z1B7); test: Inhibition of LPS-induced p38 phosphorylation in mouse RAW264.7 cells at 5 to 50 uM for 1 hr followed by stimulation with LPS for 5,10 or 15 mins by western blot analysis; type: cell-based
# RAW264.7 [10] = test: Inhibition of LPS-induced Erk phosphorylation in mouse RAW264.7 cells at 5 to 50 uM for 1 hr followed by stimulation with LPS for 5,10 or 15 mins by western blot analysis; type: cell-based
# RAW264.7 [11] = test: Antiinflammatory activity in mouse RAW264.7 cells assessed as inhibition of LPS-induced IL-1beta expression compound pretreated for 1 hr followed by stimulation with LPS for 24 hrs by EIA; type: functional, cell-based
# RAW264.7 [12] = test: Antiinflammatory activity in mouse RAW264.7 cells assessed as inhibition of LPS-induced IL-6 expression compound pretreated for 1 hr followed by stimulation with LPS for 24 hrs by EIA; type: functional, cell-based
# Mus musculus [13] = test: Antiinflammatory activity in C57BL/6 mouse assessed as reduction of LPS-induced sepsis at 7.5 mg/kg, po administered 1 hr before LPS challenge measured up to 60 hrs; type: functional; set-up: scale not given: the % may be the effect or the level left
# RAW264.7 [14] = test: Antiinflammatory activity in mouse RAW264.7 cells assessed as inhibition of LPS-induced iNOS expression compound pretreated for 1 hr followed by stimulation with LPS for 24 hrs by Western blot analysis; type: functional, cell-based
# RAW264.7 [15] = test: Inhibition of LPS-induced JNK phosphorylation in mouse RAW264.7 cells at 5 to 50 uM for 1 hr followed by stimulation with LPS for 5,10 or 15 mins by western blot analysis; type: cell-based
# RAW264.7 [16] = test: Antiinflammatory activity in mouse RAW264.7 cells assessed as inhibition of LPS-induced NO production at 5 to 50 uM for 1 hr followed by stimulation with LPS for 24 hrs by Griess reaction; type: functional, cell-based
# RAW264.7 [17] = test: Cytotoxicity against mouse RAW264.7 cells assessed as cell viability at 3.125 to 200 uM after 24 hrs by MTT assay; type: cell-based; settings: raw264.7, 24 h
# RAW264.7 [18] = test: Antiinflammatory activity in mouse RAW264.7 cells assessed as inhibition of LPS-induced PGE2 production at 5 to 50 uM for 1 hr followed by stimulation with LPS for 24 hrs […]; type: functional, cell-based
# RAW264.7 [19] = test: Antiinflammatory activity in mouse RAW264.7 cells assessed as inhibition of LPS-induced TNFalpha expression compound pretreated for 1 hr followed by stimulation with LPS for 24 hrs by EIA; type: functional, cell-based
# RAW264.7 [20] = test: Antiinflammatory activity in mouse RAW264.7 cells assessed as inhibition of LPS-induced COX2 expression at 5 to 50 uM for 1 hr followed by stimulation with LPS for 24 hrs by Western blot analysis; type: functional, cell-based
# Mus musculus [21] = test: Antiinflammatory activity in C57BL/6 mouse assessed as reduction of LPS-induced sepsis at 15 mg/kg, po administered 1 hr before LPS challenge measured up to 60 hrs; type: functional; set-up: scale not given: the % may be the effect or the level left
# [22] = target: T2, Proteinase-activated receptor 2 (Mus musculus); test: Antagonist activity at protease-activated receptor 2 in LPS-stimulated mouse RAW264.7 cells assessed as inhibition of AP-1 activation compound pretreated for 1 hr followed by stimulation with LPS for 8 hrs by luciferase reporter gene assay; type: cell-based
# RAW264.7 [23] = test: Antiinflammatory activity in mouse RAW264.7 cells assessed as inhibition of LPS-induced COX2 mRNA expression at 5 to 50 uM for 1 hr followed by stimulation with LPS for 4 hrs QT-PCR analysis; type: functional, cell-based
# Mus musculus [24] = test: Antiinflammatory activity in C57BL/6 mouse assessed as reduction of LPS-induced sepsis at 30 mg/kg, po administered 1 hr before LPS challenge measured up to 60 hrs; type: functional; set-up: scale not given: the % may be the effect or the level left
structure (smiles),measurement,setting,value
NCCCC[C@H](NC(=O)CNC(=O)Nc1ccc2c(c1)c(CN1CCCC1)cn2Cc1c(Cl)cccc1Cl)C(=O)N[C@H](Cc1ccccc1)C(=O)NC(c1ccccc1)c1ccccc1,Ki,[1],627 nM
NCC[C@H](NC(=O)CNC(=O)Nc1ccc2c(c1)c(CN1CCCC1)cn2Cc1c(Cl)cccc1Cl)C(=O)N[C@H](Cc1ccccc1)C(=O)Nc1ccccc1,Ki,[1],1940 nM
CC[C@H](C)[C@H](NC(=O)[C@H](CC1CCCCC1)NC(=O)c1ccno1)C(=O)N1CCC2(C=Cc3ccccc32)CC1,IC50,[2],2000 nM
Clc1ccc(COc2nc(NCc3ccco3)c3ccccc3n2)c(Cl)c1,inhibition,[3],16.5%
Clc1cc(Cl)cc(COc2nc(NCc3ccco3)c3ccccc3n2)c1,inhibition,[3],inactive
COc1ccc2nc(Oc3cc(Cl)cc(Cl)c3)nc(NCc3ccco3)c2c1,inhibition,[3],inactive
Cc1ccoc1CNc1nc(Oc2ccc(Cl)c(Cl)c2)nc2ccc(F)cc12,inhibition,[3],< 10%
COc1ccc2nc(Oc3ccc(Cl)cc3Cl)nc(NCc3occc3C)c2c1,IC50,[4],> 10000 nM
same,inhibition,[3],33.1%
Cc1ccoc1CNc1nc(Oc2ccc(Cl)cc2Cl)nc2ccccc12,inhibition,[3],inactive
CS(=O)(=O)Nc1ccc([N+](=O)[O-])cc1OC1CCCCC1,inhibition,RAW264.7 [5],Active
Cc1ccc(CNc2nc(Oc3cc(Cl)cc(Cl)c3)nc3ccc(F)cc23)o1,inhibition,[3],< 10%
same,Activity,[6],24%
Cc1ccoc1CNc1nc(Oc2cc(Cl)cc(Cl)c2)nc2ccc(F)cc12,inhibition,RAW264.7 [7],Dose-dependent effect
same,inhibition,[8],Dose-dependent effect
same,inhibition,[9],inactive
same,IC50,[4],2800 nM
same,inhibition,RAW264.7 [10],Active
same,inhibition,RAW264.7 [11],Dose-dependent effect
same,inhibition,RAW264.7 [12],Dose-dependent effect
same,Activity,Mus musculus [13],80%
same,inhibition,RAW264.7 [14],Dose-dependent effect
same,inhibition,RAW264.7 [15],inactive
same,inhibition,RAW264.7 [16],Active
same,Activity,RAW264.7 [17],Non-toxic
same,inhibition,RAW264.7 [18],Active
same,inhibition,RAW264.7 [19],Dose-dependent effect
same,inhibition,[3],47.7%
same,inhibition,RAW264.7 [20],Active
same,Activity,[6],12%
same,Activity,Mus musculus [21],60%
same,inhibition,[22],Dose-dependent effect
same,inhibition,RAW264.7 [23],Active
same,Activity,Mus musculus [24],20%
COc1ccc(Oc2nc(NCc3occc3C)c3ccccc3n2)cc1,inhibition,[3],23.1%
Cc1ccc(CNc2nc(Oc3ccc(Cl)cc3Cl)nc3ccc(Cl)cc23)o1,inhibition,[3],inactive
COc1ccc2nc(Oc3cccc(Cl)c3)nc(NCc3ccco3)c2c1,inhibition,[3],inactive
Clc1ccc(Oc2nc(NCc3ccco3)c3ccccc3n2)cc1Cl,inhibition,[3],inactive
Cc1ccc(CNc2nc(Oc3ccc(Cl)c(Cl)c3)nc3ccc(F)cc23)o1,inhibition,[3],inactive
COc1ccc2nc(Oc3ccc(Cl)c(Cl)c3)nc(NCc3ccco3)c2c1,inhibition,[3],inactive
CCCCCNc1nc(NCc2ccco2)c2cc(F)ccc2n1,IC50,[4],690 nM
same,inhibition,[3],73.2%
Clc1ccc(Oc2nc(NCc3ccco3)c3cc(Cl)ccc3n2)c(Cl)c1,inhibition,[3],< 10%
Cc1ccoc1CNc1nc(Oc2cccc(Cl)c2)nc2ccccc12,inhibition,[3],inactive
